Laboratory results as given in ChEMBL document CHEMBL1201862, “PubChem BioAssay data set” (2004).
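Cultured in 96-well plates, cells were exposed to test compound for 48 hours across five concentrations. GI50 is the concentration that inhibits growth by half.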 The source made the active and inactive calls. Cut-off read from the data, not from the text of the source: active = GI50 up to about 1.1 µM and inactive = higher.

How the values were obtained:
Assay in all cases: NCI-60 cell line screen, 48 h
ACHN = system: ACHN
BT-549 = system: BT-549
COLO 205 = system: COLO 205
HOP-62 = system: HOP-62
Hs-578T = system: Hs-578T
IGROV-1 = system: IGROV-1
LOX IMVI = system: LOX IMVI
MCF7 = system: MCF7
MOLT-4 = system: MOLT-4
NCI-H226 = system: NCI-H226
NCI-H23 = system: NCI-H23
OVCAR-5 = system: OVCAR-5
OVCAR-8 = system: OVCAR-8
RXF 393 = system: RXF 393
SF-268 = system: SF-268
SK-MEL-5 = system: SK-MEL-5
SN12C = system: SN12C
TK-10 = system: TK-10
U-251 = system: U-251
MDA-N = system: MDA-N

Measured: GI50

O=C(OC(=C(c1ccccc1)c1ccccc1)N1CCCC1=S)C(c1ccccc1)c1ccccc1
inactive: ACHN 5.07 µM | BT-549 5.05 µM | COLO 205 2.21 µM | HOP-62 > 10 µM | Hs-578T > 10 µM | IGROV-1 > 10 µM | LOX IMVI 3.17 µM | MCF7 7.67 µM | MOLT-4 5.01 µM | NCI-H226 4.78 µM | NCI-H23 4.23 µM | OVCAR-5 > 10 µM | OVCAR-8 7.96 µM | RXF 393 > 10 µM | SF-268 > 10 µM | SK-MEL-5 > 10 µM | SN12C > 10 µM | TK-10 > 10 µM | U-251 6.32 µM

CN(C(=O)Cc1cc(Cl)c(Cl)cc1NC(=O)CCCN)[C@H]1CCCC[C@@H]1N1CCCC1
inactive: ACHN > 100 µM | BT-549 71.9 µM | COLO 205 17.9 µM | HOP-62 > 100 µM | IGROV-1 > 100 µM | LOX IMVI 18.6 µM | MCF7 20.1 µM | MDA-N 16.7 µM | MOLT-4 60.8 µM | NCI-H226 27 µM | NCI-H23 > 100 µM | OVCAR-5 37.8 µM | OVCAR-8 > 100 µM | RXF 393 16.1 µM | SF-268 13.9 µM | SK-MEL-5 16.1 µM | SN12C 63.5 µM | TK-10 57.8 µM | U-251 19.3 µM

N=C(c1ccc2ccccc2c1)c1ccccc1Cc1ccccc1
inactive: ACHN 45.5 µM | BT-549 84.7 µM | COLO 205 > 100 µM | HOP-62 39.6 µM | IGROV-1 35.9 µM | LOX IMVI 45.6 µM | MCF7 33.5 µM | MDA-N 24.8 µM | MOLT-4 21.7 µM | NCI-H226 28 µM | NCI-H23 41.7 µM | OVCAR-5 36.8 µM | OVCAR-8 44 µM | RXF 393 5.97 µM | SK-MEL-5 37.2 µM | SN12C 34.8 µM | TK-10 > 100 µM | U-251 35.9 µM

CC1=C2c3c(C)ccc4ccc(C)c(c34)C2(O)C(C)C1=O (stereo not given)
inactive: ACHN 73.6 µM | BT-549 21 µM | COLO 205 28.8 µM | HOP-62 79.1 µM | Hs-578T 35.1 µM | IGROV-1 49.2 µM | LOX IMVI 45.4 µM | MCF7 68.5 µM | MDA-N 54.1 µM | MOLT-4 25 µM | NCI-H226 > 100 µM | OVCAR-5 > 100 µM | OVCAR-8 19.4 µM | SF-268 63.4 µM | SK-MEL-5 29.2 µM | SN12C > 100 µM | TK-10 > 100 µM | U-251 > 100 µM

CNn1c(C)n[nH]c1=O
inactive: ACHN > 100 µM | BT-549 > 100 µM | COLO 205 > 100 µM | HOP-62 > 100 µM | Hs-578T > 100 µM | IGROV-1 > 100 µM | LOX IMVI > 100 µM | MCF7 > 100 µM | MOLT-4 > 100 µM | NCI-H226 > 100 µM | NCI-H23 > 100 µM | OVCAR-5 > 100 µM | OVCAR-8 > 100 µM | SF-268 > 100 µM | SK-MEL-5 > 100 µM | SN12C > 100 µM | TK-10 > 100 µM | U-251 > 100 µM

COc1ccc2c(c1)CC1Cc3cc(OC)c(OC)cc3CN1CC2 (stereo not given)
inactive: ACHN 21.5 µM | BT-549 32.6 µM | COLO 205 23.7 µM | HOP-62 71.3 µM | Hs-578T 53 µM | IGROV-1 17.3 µM | LOX IMVI 23.5 µM | MOLT-4 24 µM | NCI-H226 21.7 µM | NCI-H23 46.5 µM | OVCAR-5 56 µM | OVCAR-8 33.8 µM | RXF 393 21 µM | SF-268 82.2 µM | SK-MEL-5 21.3 µM | TK-10 22.2 µM | U-251 49.5 µM

C=C1CC(C#N)(C#N)[C@@H]2CC3CCCC3[C@H]12.C=C1CC(C#N)(C#N)[C@H]2C3CCCC3C[C@@H]12 (stereo not given in full)
inactive: ACHN 24.8 µM | BT-549 25.9 µM | HOP-62 10 µM | Hs-578T 35.9 µM | IGROV-1 27.9 µM | MCF7 16.3 µM | MOLT-4 13.1 µM | NCI-H226 25.3 µM | NCI-H23 10 µM | OVCAR-5 10 µM | OVCAR-8 17.8 µM | RXF 393 22.1 µM | SF-268 23.3 µM | SK-MEL-5 24.7 µM | SN12C 15.7 µM | TK-10 35.1 µM | U-251 20 µM

CN(Cc1ccccc1)c1cc(=O)n(C)c(=O)[nH]1
inactive: ACHN > 100 µM | BT-549 > 100 µM | COLO 205 > 100 µM | Hs-578T > 100 µM | LOX IMVI > 100 µM | MCF7 > 100 µM | MDA-N > 100 µM | MOLT-4 > 100 µM | NCI-H226 > 100 µM | NCI-H23 > 100 µM | OVCAR-5 > 100 µM | OVCAR-8 > 100 µM | SF-268 > 100 µM | SK-MEL-5 > 100 µM | SN12C > 100 µM | TK-10 > 100 µM | U-251 > 100 µM

[N-]=[N+]=CC(=O)OCCCCl
inactive: ACHN > 100 µM | BT-549 > 100 µM | COLO 205 > 100 µM | HOP-62 > 100 µM | IGROV-1 > 100 µM | LOX IMVI > 100 µM | MCF7 > 100 µM | MDA-N > 100 µM | MOLT-4 > 100 µM | NCI-H226 > 100 µM | NCI-H23 > 100 µM | OVCAR-5 > 100 µM | RXF 393 > 100 µM | SF-268 > 100 µM | SK-MEL-5 > 100 µM | SN12C > 100 µM | TK-10 > 100 µM | U-251 > 100 µM

CCc1nc(N)nc(N)c1-c1ccc(Cl)c(Cl)c1 [ETOPRINE]
inactive: ACHN 2.86 µM | BT-549 51.3 µM | COLO 205 8.43 µM | HOP-62 2.93 µM | Hs-578T 43 µM | IGROV-1 2.96 µM | LOX IMVI 3.51 µM | MCF7 3.05 µM | NCI-H23 2.74 µM | OVCAR-5 7.06 µM | RXF 393 59.3 µM | SF-268 6.62 µM | SK-MEL-5 4.65 µM | SN12C 6.79 µM | TK-10 36.1 µM | U-251 2.79 µM

O=S(=O)(F)Cc1ccccc1 [PHENYLMETHYLSULFONYLFLUORIDE]
inactive: ACHN > 100 µM | BT-549 > 100 µM | COLO 205 > 100 µM | HOP-62 > 100 µM | IGROV-1 > 100 µM | LOX IMVI > 100 µM | MCF7 > 100 µM | MDA-N > 100 µM | MOLT-4 > 100 µM | NCI-H226 > 100 µM | NCI-H23 > 100 µM | OVCAR-5 > 100 µM | OVCAR-8 > 100 µM | SF-268 > 100 µM | SK-MEL-5 > 100 µM | SN12C > 100 µM | TK-10 > 100 µM | U-251 > 100 µM
